Patent publication US9926282B2, “Phthalazinones and isoquinolinones as rock inhibitors” (BRISTOL-MYERS SQUIBB COMPANY, priority 2013, dated 2018)
Structures can show the parent of a compound that is named as a salt.

What was measured:
ROCK1 = ROCK1 (Homo sapiens (Human), UniProt Q13464); experiment: ROCK assay (LABCHIP peptide phosphorylation), ROCK1; format: biochemical; conditions: 5 μM ATP, 1.5 μM peptide substrate; read-out: ROCK1 IC50
ROCK2 = ROCK2 (Homo sapiens (Human), UniProt O75116); experiment: ROCK assay (LABCHIP peptide phosphorylation), ROCK2; format: biochemical; conditions: 5 μM ATP, 1.5 μM peptide substrate
ROCK2, sequence (O75116 whole entry, species assumed): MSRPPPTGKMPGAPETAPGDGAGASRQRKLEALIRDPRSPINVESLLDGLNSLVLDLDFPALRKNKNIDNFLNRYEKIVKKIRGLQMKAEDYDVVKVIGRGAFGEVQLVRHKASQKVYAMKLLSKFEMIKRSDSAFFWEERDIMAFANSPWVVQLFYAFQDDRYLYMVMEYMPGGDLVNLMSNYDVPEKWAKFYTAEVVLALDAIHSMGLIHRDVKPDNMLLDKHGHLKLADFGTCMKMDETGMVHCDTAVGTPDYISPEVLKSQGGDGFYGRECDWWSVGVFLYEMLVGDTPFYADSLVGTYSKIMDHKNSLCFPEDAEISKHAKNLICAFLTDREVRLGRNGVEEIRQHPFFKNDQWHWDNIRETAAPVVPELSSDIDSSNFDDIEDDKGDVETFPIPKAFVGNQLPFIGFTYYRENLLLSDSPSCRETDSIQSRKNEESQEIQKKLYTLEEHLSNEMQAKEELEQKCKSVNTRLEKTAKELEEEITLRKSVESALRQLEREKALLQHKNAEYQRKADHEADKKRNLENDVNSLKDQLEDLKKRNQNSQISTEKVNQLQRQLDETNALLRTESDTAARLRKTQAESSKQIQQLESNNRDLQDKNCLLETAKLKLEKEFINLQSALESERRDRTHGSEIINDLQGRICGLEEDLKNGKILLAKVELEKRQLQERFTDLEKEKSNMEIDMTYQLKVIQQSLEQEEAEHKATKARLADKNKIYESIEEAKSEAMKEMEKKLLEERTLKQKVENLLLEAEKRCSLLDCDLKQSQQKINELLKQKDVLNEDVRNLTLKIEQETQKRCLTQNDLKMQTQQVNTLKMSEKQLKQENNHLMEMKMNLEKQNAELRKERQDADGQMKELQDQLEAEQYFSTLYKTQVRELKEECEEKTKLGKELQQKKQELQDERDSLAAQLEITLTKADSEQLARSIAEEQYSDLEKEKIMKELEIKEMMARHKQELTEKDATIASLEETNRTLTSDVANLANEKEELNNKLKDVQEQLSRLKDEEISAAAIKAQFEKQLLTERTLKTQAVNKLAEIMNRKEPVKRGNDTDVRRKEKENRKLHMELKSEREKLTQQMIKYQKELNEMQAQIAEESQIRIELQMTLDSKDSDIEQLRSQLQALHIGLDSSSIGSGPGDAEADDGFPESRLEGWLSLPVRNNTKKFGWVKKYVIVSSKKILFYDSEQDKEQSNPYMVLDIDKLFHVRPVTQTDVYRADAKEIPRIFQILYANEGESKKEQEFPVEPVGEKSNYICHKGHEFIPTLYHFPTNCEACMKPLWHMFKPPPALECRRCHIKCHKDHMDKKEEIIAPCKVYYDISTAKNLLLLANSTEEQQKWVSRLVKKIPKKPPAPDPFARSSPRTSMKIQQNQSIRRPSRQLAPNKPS

ROCK1, sequence (Q13464 whole entry, species assumed): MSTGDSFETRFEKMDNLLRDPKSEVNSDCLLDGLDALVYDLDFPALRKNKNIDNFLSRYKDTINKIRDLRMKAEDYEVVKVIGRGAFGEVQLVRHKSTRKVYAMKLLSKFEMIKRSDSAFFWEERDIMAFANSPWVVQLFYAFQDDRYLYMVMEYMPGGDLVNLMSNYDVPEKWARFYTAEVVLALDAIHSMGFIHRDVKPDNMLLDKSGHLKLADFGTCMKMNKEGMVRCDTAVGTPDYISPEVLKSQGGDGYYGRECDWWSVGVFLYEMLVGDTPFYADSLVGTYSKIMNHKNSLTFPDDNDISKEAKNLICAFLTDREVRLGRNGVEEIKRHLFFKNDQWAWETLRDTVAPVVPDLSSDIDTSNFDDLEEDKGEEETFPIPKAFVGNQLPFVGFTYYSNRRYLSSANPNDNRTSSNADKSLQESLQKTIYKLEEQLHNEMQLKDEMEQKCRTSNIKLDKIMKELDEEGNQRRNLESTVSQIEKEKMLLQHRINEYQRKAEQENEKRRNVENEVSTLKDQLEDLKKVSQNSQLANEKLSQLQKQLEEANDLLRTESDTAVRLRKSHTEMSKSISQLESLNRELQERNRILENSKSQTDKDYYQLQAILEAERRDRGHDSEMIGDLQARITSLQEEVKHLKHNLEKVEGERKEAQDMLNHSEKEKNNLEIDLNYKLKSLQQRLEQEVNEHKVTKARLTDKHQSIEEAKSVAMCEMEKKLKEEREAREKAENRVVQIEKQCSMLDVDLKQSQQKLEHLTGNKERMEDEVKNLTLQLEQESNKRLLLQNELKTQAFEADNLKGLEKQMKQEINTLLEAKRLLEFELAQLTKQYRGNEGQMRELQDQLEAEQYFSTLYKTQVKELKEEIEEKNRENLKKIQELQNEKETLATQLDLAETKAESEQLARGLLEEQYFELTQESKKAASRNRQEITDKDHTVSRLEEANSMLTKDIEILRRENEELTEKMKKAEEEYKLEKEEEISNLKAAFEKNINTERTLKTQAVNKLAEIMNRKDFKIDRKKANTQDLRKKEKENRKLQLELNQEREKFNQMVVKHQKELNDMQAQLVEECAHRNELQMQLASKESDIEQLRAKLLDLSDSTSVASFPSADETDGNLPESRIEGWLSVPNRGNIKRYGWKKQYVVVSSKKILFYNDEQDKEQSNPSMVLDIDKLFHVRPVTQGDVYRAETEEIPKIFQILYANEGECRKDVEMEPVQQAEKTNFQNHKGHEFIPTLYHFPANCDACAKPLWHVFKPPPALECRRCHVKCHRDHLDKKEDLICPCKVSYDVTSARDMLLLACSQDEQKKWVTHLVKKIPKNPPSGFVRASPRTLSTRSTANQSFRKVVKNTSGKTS

Compound | IC50 (ROCK1) [nM] | IC50 (ROCK2) [nM]
O=C(Nc1ccc(-c2n[nH]c(=O)c3ccccc23)cc1)c1cnn2ccc(OCCN3CCCC3)cc12 [Example 183, N-[4-(4-oxo-3,4-dihydrophthalazin-1-yl)phenyl]-5-[2-(pyrrolidin-1-yl)ethoxy]pyrazolo[1,5-a]pyridine-3-carboxamide] | 0.1 to 100 | 0.1 to 100
O=C(Nc1ccc(-c2n[nH]c(=O)c3ccccc23)cc1)c1nn(CC2CCOC2)c2cc(F)ccc12 (stereo not drawn) [Example 174, 6-fluoro-N-[4-(4-oxo-3,4-dihydrophthalazin-1-yl)phenyl]-1-(oxolan-3-ylmethyl)-1H-indazole-3-carboxamide] | 0.1 to 100 | 0.1 to 100
O=C(Cc1ccc(-c2n[nH]c(=O)c3ccccc23)cc1)N1Cc2ccccc2C1 [Example 1, 4-(4-(2-(Isoindolin-2-yl)-2-oxoethyl)phenyl)phthalazin-1(2H)-one] | – | 0.1 to 100
O=C(Cc1ccc(-c2c[nH]c(=O)c3ccccc23)c(F)c1)N1Cc2ccccc2C1 [Example 256, 4-(2-Fluoro-4-(2-(isoindolin-2-yl)-2-oxoethyl)phenyl)isoquinolin-1(2H)-one] | 101 to 1000 | –
CC1(C)OB(c2ccc(CC(=O)N3Cc4ccccc4C3)c(F)c2)OC1(C)C [Example 36, 2-(2-Fluoro-4-(4,4,5,5-tetramethyl-1,3,2-dioxaborolan-2-yl)phenyl)-1-(isoindolin-2-yl)ethanone] | 1000 to 50000 | –
O=C(Nc1ccc(-c2n[nH]c(=O)c3ccccc23)cc1)c1cn2ccnc(Cl)c2n1 [Example 124, 8-chloro-N-[4-(4-oxo-3,4-dihydrophthalazin-1-yl)phenyl]imidazo[1,2-a]pyrazine-2-carboxamide] | 101 to 1000 | –
O=C(Nc1ccc(-c2n[nH]c(=O)c3ccccc23)cc1)c1cnn(CC(F)(F)F)c1 [Example 376, N-(4-(4-Oxo-3,4-dihydrophthalazin-1-yl)phenyl)-1-(2,2,2-trifluoroethyl)-1H-pyrazole-4-carboxamide, TFA] | 101 to 1000 | –
O=C(Nc1ccc(-c2n[nH]c(=O)c3ccccc23)cc1)c1cn[nH]c1 [Example 391, N-(4-(4-Oxo-3,4-dihydrophthalazin-1-yl)phenyl)-1H-pyrazole-4-carboxamide, TFA] | 101 to 1000 | –
CC(O)Cn1cc(C(=O)Nc2ccc(-c3n[nH]c(=O)c4ccccc34)cc2)cn1 (stereo not drawn) [Example 387, 1-(2-Hydroxypropyl)-N-(4-(4-oxo-3,4-dihydrophthalazin-1-yl)phenyl)-1H-pyrazole-4-carboxamide] | 1000 to 50000 | –
O=C(Cc1ccc(-c2n[nH]c(=O)c3ccccc23)cc1)Nc1cccnc1 [Example 5, 2-[4-(4-oxo-3,4-dihydrophthalazin-1-yl)phenyl]-N-(pyridin-3-yl)acetamide] | – | 101 to 1000
O=C(Nc1ccc(-c2n[nH]c(=O)c3ccccc23)cc1)c1cnn(C2CCS(=O)(=O)C2)c1 (stereo not drawn) [Example 396, 1-(1,1-Dioxidotetrahydrothiophen-3-yl)-N-(4-(4-oxo-3,4-dihydrophthalazin-1-yl)phenyl)-1H-pyrazole-4-carboxamide, TFA] | 101 to 1000 | –
O=C(Cc1ccc(-c2n[nH]c(=O)c3ccccc23)cc1)N1CCc2ccccc2C1 [Example 4, 4-{4-[2-oxo-2-(1,2,3,4-tetrahydroisoquinolin-2-yl)ethyl]phenyl}-1,2-dihydrophthalazin-1-one] | – | 101 to 1000
O=c1[nH]nc(-c2ccc(Nc3nc4ccccc4s3)cc2)c2ccccc12 [Example 84] | 101 to 1000 | –
O=C(Nc1ccc(-c2n[nH]c(=O)c3ccccc23)cc1)c1cnn2ccc(OCCO)cc12 [Example 186, 5-(2-hydroxyethoxy)-N-[4-(4-oxo-3,4-dihydrophthalazin-1-yl)phenyl]pyrazolo[1,5-a]pyridine-3-carboxamide] | 101 to 1000 | –
Cc1ccc2oc(Nc3ccc(-c4n[nH]c(=O)c5ccccc45)cc3)nc2c1 [Example 86, 4-{4-[(5-Methyl-1,3-benzoxazol-2-yl)amino]phenyl}-1,2-dihydrophthalazin-1-one] | 101 to 1000 | –
O=c1[nH]nc(-c2ccc(Nc3nnc(-c4ccccc4)s3)cc2)c2ccccc12 [Example 87, 4-(4-((5-Phenyl-1,3,4-thiadiazol-2-yl)amino)phenyl)phthalazin-1(2H)-one] | 101 to 1000 | –
O=C(Nc1ccc(-c2n[nH]c(=O)c3ccccc23)c(CO)c1)c1nn(CCC2CCOCC2)c2ccccc12 [Example 361, N-(3-(Hydroxymethyl)-4-(4-oxo-3,4-dihydrophthalazin-1-yl)phenyl)-1-(2-(tetrahydro-2H-pyran-4-yl)ethyl)-1H-indazole-3-carboxamide] | 101 to 1000 | –
O=C(Nc1ccc(-c2c[nH]c(=O)c3ccccc23)cc1)c1ccc(N2CCOCC2)cc1 [Example 250, 4-Morpholino-N-(4-(1-oxo-1,2-dihydroisoquinolin-4-yl)phenyl)benzamide] | 101 to 1000 | –
O=C(Cc1ccc(-c2n[nH]c(=O)c3ccccc23)cc1)Nc1ccncc1 [Example 7, 2-[4-(4-oxo-3,4-dihydrophthalazin-1-yl)phenyl]-N-(pyridin-4-yl)acetamide] | – | 0.1 to 100
O=C(Nc1ccc(-c2n[nH]c(=O)c3ccccc23)cc1)c1cnn(C2CCC2)c1 [Example 385, TFA] | 0.1 to 100 | –
O=C(Nc1ccc(-c2n[nH]c(=O)c3ccccc23)cc1)c1csc(-c2ccncc2)n1 [Example 45, N-(4-(4-Oxo-3,4-dihydrophthalazin-1-yl)phenyl)-2-(pyridin-4-yl)thiazole-4-carboxamide] | – | 0.1 to 100
O=C(Oc1ccc(-c2n[nH]c(=O)c3ccccc23)cc1)N1Cc2ccccc2C1 [Example 68, 4-(4-Oxo-3,4-dihydrophthalazin-1-yl)phenyl isoindoline-2-carboxylate] | – | 0.1 to 100
O=C(Nc1ccc(-c2n[nH]c(=O)c3ccccc23)cc1)c1cnn(CC2CC2)c1 [Example 375, 1-(Cyclopropylmethyl)-N-(4-(4-oxo-3,4-dihydrophthalazin-1-yl)phenyl)-1H-pyrazole-4-carboxamide, TFA] | 0.1 to 100 | –
CN(Cc1ccccc1)C(=O)Cc1ccc(-c2n[nH]c(=O)c3ccccc23)cc1 [Example 8, N-benzyl-N-methyl-2-[4-(4-oxo-3,4-dihydrophthalazin-1-yl)phenyl]acetamide] | – | 1000 to 50000
O=C(Nc1ccc(-c2n[nH]c(=O)c3ccccc23)cc1)c1csc(-c2cc(F)cc(F)c2)n1 [Example 49, 2-(3,5-difluorophenyl)-N-[4-(4-oxo-3,4-dihydrophthalazin-1-yl)phenyl]-1,3-thiazole-4-carboxamide] | – | 0.1 to 100
O=C(Nc1ccc(-c2n[nH]c(=O)c3ccccc23)cc1)c1cnn(CC(F)(F)C(F)F)c1 [Example 383, N-(4-(4-Oxo-3,4-dihydrophthalazin-1-yl)phenyl)-1-(2,2,3,3-tetrafluoropropyl)-1H-pyrazole-4-carboxamide, TFA] | 101 to 1000 | –
O=C(Cc1ccc(-c2n[nH]c(=O)c3ccccc23)cc1)NCc1ccccc1 [Example 6, N-benzyl-2-[4-(4-oxo-3,4-dihydrophthalazin-1-yl)phenyl]acetamide] | – | 101 to 1000
CC(C)(O)Cn1nc(C(=O)Nc2ccc(-c3n[nH]c(=O)c4ccccc34)cc2F)c2ccccc21 [Example 358, N-(2-Fluoro-4-(4-oxo-3,4-dihydrophthalazin-1-yl)phenyl)-1-(2-hydroxy-2-methylpropyl)-1H-indazole-3-carboxamide] | 101 to 1000 | –
